Measured values reported in publication PMC11274883, “Anticancer Effect of Pt^[sequence], Pt^II5MESS, Pt^II56MESS and Their Platinum(IV)-Dihydroxy Derivatives against Triple-Negative Breast Cancer and Cisplatin-Resistant Colorectal Cancer” (Cancers, 2024).

How the values were obtained:
Type in all cases: cell-based
[1] = tested on: HT29 cells; test: Cellular uptake of Pt by ICP-MS; details: for Intracellular Concentration: HT29, 3 µM; for Intracellular/extracellular ratio: HT29, extracellular 3 µM
Protocol: (§1) A final concentration of 10^6 cells/well of MDA−MB−231 and HT29 cells were seeded in 6-well plates and incubated overnight to adhere. The cells were then treated with a final concentration of 3 µM of either Pt^II or Pt^IV complexes. After 0, 0.5, 1, 3, 6, 12, 24 or 30 h, the medium was removed, and the cells were washed three times with cold PBS and allowed to dry. Then, 400 µL of 69% HNO3 (Baseline grade nitric acid with PPB level reported impurities, Seastar Chemicals, Sidney, BC, Canada) was added to each well for 90 min to ensure complete digestion. […] Iridium 193 (^193Ir) was mixed online and introduced into the ICP-MS to check uptake efficiency and matrix interference. All ICP-MS parameters are described in Table S2 and elaborated in Method S3. The results represent an average of three different experiments run in triplicate (±SEM) and expressed as nmol/10^6 cells or µM/cell. Quantification of the cellular uptake of Pt was based on external standards (Certified Standard from Sigma-Aldrich, VIC, Australia) containing Internal standard Ir.
(§2) Method S3. Cellular Uptake of Platinum(II) and (IV) complexes
(§3) A final concentration of 10^6 cells/well of MDA−MB−231 and HT29 cells were seeded in 6-well plates and incubated overnight to adhere. The cells were then treated with a final concentration of 3 µM of either PtII or PtIV complexes. After 0, 0.5, 1, 3, 6, 12, 24 or 30 h, the medium was removed, and the cells were washed three times with cold PBS and allowed to dry. Then, 400 µL of 69% HNO3 (Baseline grade nitric acid with Instrument Quality Grade Nitric acid with ppb level reported impurities, Seastar Chemicals, Sidney, Canada) was added to each well for 90 mins to ensure complete digestion. The digests were then moved to trace -metal free 15 mL centrifuge tubes […]
(§4) concentration of 3.5-4%. Iridium 193 (193Ir), selected as internal standard, has similar first ionisation potential and mass to Platinum 195 (195Pt). A concentration of 50 ppb 193Ir in 2% HNO3 solution was chosen for the Perkin Elmer NexION® Inductively Coupled Plasma Mass Spectrometer (ICP-MS) as it produced a steady state signal intensity of 600-800K counts per second. Mixing and injection of sample and internal standard solution was carried out using an ESI 7 port Valve system (Elemental Scientific, USA). A high-quality Solvent Flex 2 stop pump with 0.38 mm ID tubing was used in conjunction with the ICP-MS’s Peristaltic pump set at 20 […]
(§5) standard both, at 0.25 mL/min) being 0.5 mL/min. The ICP-MS was tuned to high sensitivity settings to facilitate detection of low Pt concentrations in samples. This was done by adjusting the nebuliser gas flow between […] to achieve maximum Indium 115 intensity whilst maintaining an acceptable average oxide and doubly charged ratio of 1.64-2.24% and 1.17-1.69% respectively. The analysis method was set to peak hopping mode with a dwell time of […] and 45 sweeps through the mass spectrum per sample read. […]
(§6) peak integration time of 4500 milliseconds and enabled the collection of numerous data points for peak integration thereby increasing accuracy. The ICP-MS was tuned daily, and its performance optimised to a set of suppliers recommended settings. Analysis was only carried out when optimal oxide and doubly charged ratios with high ionic sensitivity was achieved. All ICP-MS parameters are described in Table S2. The results represent an average of three different experiments run in triplicates (± SEM) and expressed as nmol/106 cells or µM/cell. Quantification of the cellular uptake of Pt was based on external standards (Certified Standard from Sigma-Aldrich NSW, Australia) containing Internal standard Ir. […]

[2] = tested on: MDA−MB−231 cells; test: Cellular uptake of Pt by ICP-MS; details: for Intracellular Concentration: MDA−MB−231, 3 µM; for Intracellular/extracellular ratio: MDA−MB−231, extracellular 3 µM
Protocol: as §1, §2, §3, §4, §5, §6

[3] = tested on: MCF10A; test: WST-1 cytotoxicity, 72 h; details: mean ± SEM
Protocol: Cells were seeded in 96-well flat-bottom culture plates at a concentration of 1000 cells per well. […] After 72 h, the medium was removed and replaced with new medium. The cell viability reagent WST-1 (10 µL, Roche Diagnostics, Indianapolis, IN, USA) was added to each well. After an hour, the absorbance was measured at 450 nm using a versatile microplate reader (Bio-strategy, Campbellfield, VIC, Australia). Three separate experiments were performed, each with n = 3 replicates. GraphPad prism 10 was used to calculate apparent IC50 values using the nonlinear regression model Y = Bottom + (Top-Bottom)/(1 + 10^(X-LogIC50)) where Top and bottom are plateaus in the y-axis (% survival). The R^2 value of the curve fits ranged from 0.8972 to 0.9794.

Structure (SMILES) | Intracellular Concentration ([1]; 0 h) [nmol/10^6 cells] | Intracellular Concentration ([1]; 0.5 h) [nmol/10^6 cells] | Intracellular Concentration ([1]; 1 h) [nmol/10^6 cells] | Intracellular Concentration ([1]; 3 h) [nmol/10^6 cells] | Intracellular Concentration ([1]; 6 h) [nmol/10^6 cells] | Intracellular Concentration ([1]; 12 h) [nmol/10^6 cells] | Intracellular Concentration ([1]; 24 h) [nmol/10^6 cells] | Intracellular Concentration ([1]; 30 h) [nmol/10^6 cells] | Intracellular Concentration ([2]; 0 h) [nmol/10^6 cells] | Intracellular Concentration ([2]; 0.5 h) [nmol/10^6 cells] | Intracellular Concentration ([2]; 1 h) [nmol/10^6 cells] | Intracellular Concentration ([2]; 3 h) [nmol/10^6 cells] | Intracellular Concentration ([2]; 6 h) [nmol/10^6 cells] | Intracellular Concentration ([2]; 12 h) [nmol/10^6 cells] | Intracellular Concentration ([2]; 24 h) [nmol/10^6 cells] | Intracellular Concentration ([2]; 30 h) [nmol/10^6 cells] | IC50 [3] [nM] | Intracellular/extracellular ratio ([1]; 0 h) | Intracellular/extracellular ratio ([1]; 0.5 h) | Intracellular/extracellular ratio ([1]; 1 h) | further results
N.N.[Cl][Pt][Cl] [Cisplatin, cisplatin] | 0.36 | 0.94 | 0.14 | 0.28 | 0.10 | 0.57 | 1.02 | 0.71 | 0.56 | 0.15 | 0.14 | 0.12 | 0.18 | 0.19 | 0.24 | 1.29 | 4710 ± 1470 | – | – | – | –
Cc1cc2cccnc2c2ncccc12.N[C@H]1CCCC[C@@H]1N.O=[N+]([O-])[O-].O=[N+]([O-])[O-].[Pt+2] [Pt^II5MESS, [Pt(5-methyl-1,10-phenanthroline)(1S,2S-diaminocyclohexane)](NO3)2] | 0.28 | 0.79 | 1.26 | 2.75 | 4.65 | 19.18 | 21.18 | 21.24 | 0.37 | 0.44 | 0.39 | 0.98 | 1.25 | 4.82 | 5.64 | 7.63 | 1180 ± 1750 | 44.37 | 125.00 | 197.63 | Intracellular/extracellular ratio ([1]; 3 h): 431.44; Intracellular/extracellular ratio ([1]; 6 h): 730.89; Intracellular/extracellular ratio ([1]; 12 h): 3013.21; Intracellular/extracellular ratio ([1]; 24 h): 3327.94; Intracellular/extracellular ratio ([1]; 30 h): 3337.20; Intracellular/extracellular ratio ([2]; 0 h): 57.65; Intracellular/extracellular ratio ([2]; 0.5 h): 69.63; Intracellular/extracellular ratio ([2]; 1 h): 61.30; Intracellular/extracellular ratio ([2]; 3 h): 154.59; Intracellular/extracellular ratio ([2]; 6 h): 196.09; Intracellular/extracellular ratio ([2]; 12 h): 757.65; Intracellular/extracellular ratio ([2]; 24 h): 885.63; Intracellular/extracellular ratio ([2]; 30 h): 1199.77
Cc1c(C)c2cccnc2c2ncccc12.N[C@H]1CCCC[C@@H]1N.O=[N+]([O-])[O-].O=[N+]([O-])[O-].[Pt+2] [Pt^II56MESS, [Pt(5,6-dimethyl-1,10-phenanthroline)(1S,2S-diaminocyclohexane)](NO3)2] | 0.45 | 0.87 | 1.38 | 2.23 | 5.05 | 17.67 | 23.28 | 24.85 | 0.68 | 0.58 | 0.78 | 1.24 | 1.88 | 4.80 | 5.38 | 11.24 | 410 | 70.93 | 136.74 | 216.82 | intracellular/extracellular ratio relative to the maximum ratio of cisplatin ([1]; HT29, 30 h): 34.8 fold; Intracellular/extracellular ratio ([1]; 3 h): 350.73; Intracellular/extracellular ratio ([1]; 6 h): 793.80; Intracellular/extracellular ratio ([1]; 12 h): 2776.28; Intracellular/extracellular ratio ([1]; 24 h): 3657.59; Intracellular/extracellular ratio ([1]; 30 h, listed as 56MESS): ~3904; Intracellular/extracellular ratio ([1]; 30 h, listed as PtII56MESS): 3903.51; drug's concentration per cell ([1]; per HT29 cell, cell volume 1.7 pL, starting concentration 3 µM): ~11,711 µM; intracellular/extracellular ratio relative to the maximum ratio of cisplatin ([2]; MDA−MB−231, 30 h): 8.7 fold; Intracellular/extracellular ratio ([2]; 0 h): 107.16; Intracellular/extracellular ratio ([2]; 0.5 h): 92.36; Intracellular/extracellular ratio ([2]; 1 h): 122.42; Intracellular/extracellular ratio ([2]; 3 h): 195.59; Intracellular/extracellular ratio ([2]; 6 h): 296.93; Intracellular/extracellular ratio ([2]; 12 h): 754.52; Intracellular/extracellular ratio ([2]; 24 h): 845.27; Intracellular/extracellular ratio ([2]; 30 h): 1765.95 ± 526.75; Intracellular/extracellular ratio ([2]; 30 h, listed as 56MESS): around 1766; Intracellular/extracellular ratio ([2]; 30 h, listed as PtII56MESS): 1765.95; drug's concentration per cell ([2]; per MDA−MB−231 cell, cell volume 1.7 pL, starting concentration 3 µM): about 5298 µM
